{"source": "paper PMC11467779", "about": "“New anti-ovarian cancer quinolone derivatives acting by modulating microRNA processing machinery” (RSC Medicinal Chemistry, 2024)", "key": {"KO TRBP SK-Hep-1 cells": {"tested_on": "KO TRBP SK-Hep-1 cells", "experiment": "Antiproliferative effect on KO TRBP SK-Hep-1 cells (CCK-8)", "assay_type": "cell-based, human", "details": "48 hours", "description": "(§1) HCCLM3 and SK-Hep-1 cells were seeded into 96-well plates at a density of 10 000 cells per well and allowed to adhere overnight. Subsequently, the cells were treated with the following substances: 0.1% DMSO as the negative control, various concentrations of the test compounds, and 125 μM enoxacin as the positive control. After 48 h of incubation, the original culture medium was removed, and the cells were washed twice with PBS. Then, 100 μL of DMEM culture medium containing 10% CCK-8 (Bimake, USA) was added to each well. The plates were incubated for 30 minutes at 37 °C. To determine the […], measurements were taken at a wavelength of 450 nm using a Varioskan from Thermo Fisher Scientific."}, "miR-21-5p biogenesis": {"tested_on": "miR-21-5p biogenesis", "experiment": "miR-21-5p luciferase reporter (psi-R21 / psi-CTRL) in HeLa cells", "assay_type": "cell-based, human", "description": "HeLa cells were transfected with 10 ng of psi-R21 or psi-CTRL using Lipofectamine™ 2000 (Thermo Fisher Scientific) and after 48 hours were treated with either enoxacin or 33 at 20 μM and 50 μM. After 6 hours Renilla luciferase (RLuc) and firefly luciferase (FLuc) activities were measured using the Dual-Luciferase® Reporter Assay System (Promega), following the manufacturer's instructions, and GloMax® Discover Microplate Reader (Promega).\nThe binding site for miR-21 was cloned into psiCHECK™-2 Vector (Promega), downstream the Renilla cDNA, by inverted PCR using the following oligonucleotides: 21MRE_FW […]; 21MRE_REV […]. The resulting construct was named psi-R21."}, "[1]": {"tested_on": "shRNA to siRNA maturation (GAPDH mRNA)", "experiment": "RNAi enhancing activity (shRNA to siRNA maturation, GAPDH mRNA in HEK-293T_shGAPDH)", "assay_type": "cell-based, human", "details": "50 μM, 48 hours", "description": "HEK-293T_shSCR and HEK-293T_shGAPDH were treated with 50 μM of enoxacin and 33 for 48 hours before RNA extraction and expression analysis.\nLentiviral particles were produced by calcium phosphate transient transfection of HEK-293T cells with specific lentiviral plasmids (shGAPDH: TRCN0000445616 and shSCR: TRCN0000015937 from SIGMA-ALDRICH) together with the packaging plasmids (pLP1and pLP2) and the envelope plasmid pLP/VSVG. For each lentiviral plasmid one 150 mm plate of HEK293T cells was used for transfection. After 14–16 hours the medium was replaced with complete medium supplemented with 1 mM sodium butyrate (SIGMA-ALDRICH). The collection of medium containing lentiviral particles occurs 48 h and 72 h after transfection; complete medium supplemented with sodium butyrate was added after the first collection. […]\nTotal RNA was extracted using the Direct-zol RNA MiniPrep kit (Zymo Research) with on-column DNase treatment, according to the manufacturer's instructions. Reverse transcription was carried out with SuperScript VILO cDNA Synthesis Kit (Life Technologies) and the cDNA samples were analyzed by qRT-PCR using PowerUp SYBR Green Master Mix (Thermo Fisher Scientific). For miR-21 expression analysis total RNA was retrotranscribed using miRCURY® LNA® RT Kit (Qiagen) and the cDNA was analyzed by using miRCURY® LNA® miRNA PCR Assay (Qiagen). […]"}, "WT HCCLM3 cells": {"tested_on": "WT HCCLM3 cells", "experiment": "Antiproliferative effect on WT HCCLM3 cells (CCK-8)", "assay_type": "cell-based, human", "details": "30 μM, 48 hours", "description": "as §1"}, "TRBP": {"molecular_target": "T1, TRBP (Homo sapiens, UniProt Q15633)", "T1 sequence (Q15633 1-366)": "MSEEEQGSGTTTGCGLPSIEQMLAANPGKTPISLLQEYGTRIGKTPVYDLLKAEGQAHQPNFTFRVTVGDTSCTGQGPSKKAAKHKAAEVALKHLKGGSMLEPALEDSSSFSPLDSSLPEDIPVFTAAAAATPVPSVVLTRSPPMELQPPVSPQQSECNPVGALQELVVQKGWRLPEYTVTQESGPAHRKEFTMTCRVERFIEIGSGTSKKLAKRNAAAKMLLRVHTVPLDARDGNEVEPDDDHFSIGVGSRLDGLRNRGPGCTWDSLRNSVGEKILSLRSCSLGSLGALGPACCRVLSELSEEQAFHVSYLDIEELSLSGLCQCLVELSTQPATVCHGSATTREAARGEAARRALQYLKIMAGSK", "experiment": "Surface plasmon resonance (SPR) assay on TRBP", "assay_type": "binding", "details": "versus enoxacin", "description": "Following the manufacturer's instructions, the BIAcore Sensor Chip (CM5) underwent initial activation using a mixture of NHS and EDC. Subsequently, recombinant human TRBP proteins at a concentration of 20 μg mL^−1 (in 10 mM sodium acetate, pH 4.0) were injected over the CM5 chip. After reaching a coupling level of 12 000 RU, a 1 M ethanolamine hydrochloride was injected to block the chip, preventing nonspecific binding. All the compounds were diluted in HBS-EP buffer (10 mM HEPES, pH 7.4, 3 mM EDTA, 150 mM NaCl, and 0.005% surfactant P-20) with 1% DMSO. Samples were injected at a rate of 10 μL min^−1 for 120 seconds, followed by a dissociation phase of 90 seconds. After each cycle, a 50% DMSO solution was used to regenerate the chip surface and restore the sensorgram baseline. Binding analysis was performed using BIA evaluation version 3.2 software, determining the […] (KD)."}, "miR-21": {"tested_on": "miR-21", "experiment": "miR-21 expression in HeLa cells (qRT-PCR)", "assay_type": "cell-based, human", "details": "50 μM, 6 hours", "description": "Total RNA was extracted using the Direct-zol RNA MiniPrep kit (Zymo Research) with on-column DNase treatment, according to the manufacturer's instructions. Reverse transcription was carried out with SuperScript VILO cDNA Synthesis Kit (Life Technologies) and the cDNA samples were analyzed by qRT-PCR using PowerUp SYBR Green Master Mix (Thermo Fisher Scientific). For miR-21 expression analysis total RNA was retrotranscribed using miRCURY® LNA® RT Kit (Qiagen) and the cDNA was analyzed by using miRCURY® LNA® miRNA PCR Assay (Qiagen). The oligonucleotides used are the following: GAPDH_FW […]; GAPDH_REV […]; ATP5O_FW […]; ATP5O_REV […]; hsa-miR-21-5p miRCURY LNA miRNA PCR Assay (YP00204230); U6 snRNA (v2) miRCURY LNA miRNA PCR Assay (YP02119464)."}, "WT SK-Hep-1 cells": {"tested_on": "WT SK-Hep-1 cells", "experiment": "Antiproliferative effect on WT SK-Hep-1 cells (CCK-8)", "assay_type": "cell-based, human", "details": "48 hours", "description": "as §1"}}}
{"molecule": "O=C(O)c1cn(C2CC2)c2cc(N3CCc4ccccc4C3)c(F)cc2c1=O", "note": "[Compound 33, 1-Cyclopropyl-7-(3,4-dihydroisoquinolin-2(1H)-yl)-6-fluoro-4-oxo-1,4-dihydroquinoline-3-carboxylic acid]", "values": [{"measurement": "antiproliferative effect on KO TRBP SK-Hep-1 cells", "setting": "KO TRBP SK-Hep-1 cells; 30 μM", "value": "no antiproliferative effect"}, {"measurement": "viability of KO TRBP SK-Hep-1 cells", "setting": "KO TRBP SK-Hep-1 cells; 50 μM", "value": "not affecting"}, {"measurement": "miRNA enhancing effect: Renilla luciferase activity, psi-R21 construct", "setting": "miR-21-5p biogenesis; 50 μM, 6 hours", "value": "decrease in Renilla luciferase activity"}, {"measurement": "Renilla luciferase activity, control construct psi-CTRL", "setting": "miR-21-5p biogenesis; construct lacking the miR-21-5p binding site", "value": "no significant variation"}, {"measurement": "RNAi enhancing effect (GAPDH mRNA decrease)", "setting": "[1]", "value": "modest but significant RNAi enhancing effect"}, {"measurement": "reduction of viability of WT HCCLM3 cells", "setting": "WT HCCLM3 cells", "value": "about 50%"}, {"measurement": "binding affinity for TRBP, fold stronger than enoxacin", "setting": "TRBP", "value": "approximately 40 fold"}, {"measurement": "miR-21 level in HeLa cells", "setting": "miR-21", "value": "Upregulation of miR-21"}, {"measurement": "antiproliferative effect on WT TRBP SK-Hep-1 cells", "setting": "WT SK-Hep-1 cells; 30 μM", "value": "less evident"}, {"measurement": "viability of WT SK-Hep-1 cells", "setting": "WT SK-Hep-1 cells; 50 μM", "value": "significantly reduced the viability"}]}
